Test results as given in patent US5712300A, “Hydroxamic acid derivatives useful for the treatment of diseases related to connective tissue degradation” (priority 1997, dated 1998).

How the values were obtained:
Format in all cases: biochemical
[1] = target: Gelatinase; assay: MMP inhibition by particle concentration fluorescence technique (gelatinase); conditions: pH 7.5; 15 min enzyme preincubation; substrate 1-3 h at room temperature; read-out: MMP Inhibition Constants, Gelatinase Ki
Protocol: (§1) Inhibitory activity is evaluated in one or more of the MMP enzymes (stromelysin, gelatinase, and collagenase) in vitro using a particle concentration fluorescence techniques. An inhibitor binds to MMP enzymes prevents the degradation of a substrate of stromelysin, gelatinase, or collagenase. The substrate is attached with a fluorescein and a biotin. The intact substrate then binds to an avidin-coated particle via the biotin moiety. Once the particle is washed and dried, a fluorescent signal is generated since the fluorescent group is attached to the particle. Without an inhibitor present, the substrate is degraded by MMP enzymes and the fluorescein group is removed, therefore, no fluorescent signal can be detected. Testing compounds are dissolved in DMSO to the desired concentration, then the solutions are diluted to 1:5 with MMP buffer (50 mM Tris-HCl, pH 7.5; 150 mM NaCl; 0.02% NAN3). Serial two-fold dilutions of each compound are prepared. A concentrated, activated enzyme solution is transferred into each plate of the testing compounds, and the mixture is incubated at room temperature for 15 minutes. Thawed MMP substrate is then added into all plates, and the plates are incubate in the dark for 1-3 hours at room temperature. At this point, the substrate mixture is reacted with 0.1% avidin-coated polystyrene particles.

[2] = target: T1, Collagenase (Homo sapiens, UniProt P03956); assay: MMP inhibition by particle concentration fluorescence technique (collagenase); conditions: pH 7.5; 15 min enzyme preincubation; substrate 1-3 h at room temperature; read-out: MMP Inhibition Constants, Collagenase Ki
T1 sequence (P03956 100-469): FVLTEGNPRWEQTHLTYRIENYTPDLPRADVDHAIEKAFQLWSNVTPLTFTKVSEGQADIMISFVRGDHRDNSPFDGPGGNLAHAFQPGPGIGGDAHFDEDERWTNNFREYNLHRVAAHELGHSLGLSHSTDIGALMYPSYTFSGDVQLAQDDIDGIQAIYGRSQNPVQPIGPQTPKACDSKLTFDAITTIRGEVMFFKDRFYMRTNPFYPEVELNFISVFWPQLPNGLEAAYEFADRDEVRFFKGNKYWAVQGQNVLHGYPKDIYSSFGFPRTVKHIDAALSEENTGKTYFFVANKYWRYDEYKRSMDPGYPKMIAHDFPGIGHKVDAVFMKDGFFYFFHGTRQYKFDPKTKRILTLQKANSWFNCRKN
Protocol: as §1

[3] = target: Stromelysin (Homo sapiens, UniProt P08254); assay: MMP inhibition by particle concentration fluorescence technique (stromelysin); conditions: pH 7.5; 15 min enzyme preincubation; substrate 1-3 h at room temperature; read-out: MMP Inhibition Constants, Stromelysin Ki
Chain of Stromelysin (P08254 100-477): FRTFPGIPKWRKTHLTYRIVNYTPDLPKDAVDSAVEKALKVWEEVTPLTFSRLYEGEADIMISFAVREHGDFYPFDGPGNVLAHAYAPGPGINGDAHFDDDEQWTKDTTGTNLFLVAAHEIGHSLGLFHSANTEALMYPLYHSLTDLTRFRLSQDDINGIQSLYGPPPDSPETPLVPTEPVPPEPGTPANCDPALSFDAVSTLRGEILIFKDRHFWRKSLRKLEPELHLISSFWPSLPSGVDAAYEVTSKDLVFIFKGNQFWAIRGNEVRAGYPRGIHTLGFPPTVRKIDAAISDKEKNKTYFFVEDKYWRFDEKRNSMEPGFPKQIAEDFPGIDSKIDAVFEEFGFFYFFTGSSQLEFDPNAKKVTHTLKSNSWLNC
Text: An inhibitor binds to MMP enzymes prevents the degradation of a substrate of stromelysin, gelatinase, or collagenase. The substrate is attached with a fluorescein and a biotin. The intact substrate then binds to an avidin-coated particle via the biotin moiety. Once the particle is washed and dried, a fluorescent signal is generated since the fluorescent group is attached to the particle. Without an inhibitor present, the substrate is degraded by MMP enzymes and the fluorescein group is removed, therefore, no fluorescent signal can be detected. […] Serial two-fold dilutions of each compound are prepared. A concentrated, activated enzyme solution is transferred into each plate of the testing compounds, and the mixture is incubated at room temperature for 15 minutes.

SMILES	Ki [1]	Ki [2]	Ki [3]
CC(C)C[C@@]1([C@@H](CCN2C(=O)c3ccccc3C2=O)C(=O)NO)CCN(CCc2ccccc2)C1=O (relative stereo) [Example 4, α-[2-(1,3-Dihydro-1,3-dioxo-2H-isoindol-2-yl)ethyl]-N-hydroxy-3-(2-methylpropyl)-2-oxo-1-(2-phenylethyl)-3-pyrrolidineacetamide]	204 nM	5700 nM	–
CC(C)C[C@@]1([C@@H](CCN2C(=O)c3ccc(N)cc3C2=O)C(=O)NO)CCN(CCc2ccccc2)C1=O (relative stereo) [Example 9, α-[2-(5-Amino-1,3-dihydro-1,3-dioxo-2H-isoindol-2-yl)ethyl]-N-hydroxy-3-(2-methylpropyl)-2-oxo-1-(2-phenylethyl)-3-pyrrolidineacetamide]	780 nM	14300 nM	903 nM
CC(C)C[C@@]1([C@@H](CCN2C(=O)c3ccc([N+](=O)[O-])cc3C2=O)C(=O)NO)CCN(CCc2ccccc2)C1=O (relative stereo) [Example 11, N-Hydroxy-3-(2-methylpropyl)-α-[2-(5-nitro-1,3-dihydro-1,3-dioxo-2H-isoindol-2-yl)ethyl]-2-oxo-1-(2-phenylethyl)-3-pyrrolidineacetamide]	498 nM	73 nM	1020 nM
CC(C)C[C@@]1([C@@H](CCN2C(=O)c3ccc(F)cc3C2=O)C(=O)NO)CCN(CCc2ccccc2)C1=O (relative stereo) [Example 14, α-[2-(5-Fluoro-1,3-dihydro-1,3-dioxo-2H-isoindol-2-yl)ethyl]-N-hydroxy-3-(2-methylpropyl)-2-oxo-1-(2-phenylethyl)-3-pyrrolidineacetamide]	97 nM	533 nM	46 nM
CC(C)C[C@@]1([C@@H](CCCN2C(=O)c3ccccc3C2=O)C(=O)NO)CCN(CCc2ccccc2)C1=O (relative stereo) [Example 15]	782 nM	21300 nM	188 nM
CC(C)C[C@@]1([C@@H](CN2C(=O)c3ccccc3C2=O)C(=O)NO)CCN(CCc2ccccc2)C1=O (relative stereo) [Example 16, α-[2-(1,3-Dihydro-1,3-dioxo-2H-isoindol-2-yl)methyl]-N-hydroxy-3-(2-methylpropyl)-2-oxo-1-(2-phenylethyl)-3-pyrrolidineacetamide]	2870 nM	14200 nM	92.4 nM
CCOC(=O)N(CC[C@@H](C(=O)NO)[C@]1(CC(C)C)CCN(CCc2ccccc2)C1=O)C(=O)OCc1ccccc1 (relative stereo) [Example 70, Ethyl Phenylmethyl[4-(hydroxyamino)-3-[3-(2-methylpropyl)-2-oxo-1-(2-phenylethyl)-3-pyrrolidinyl]-4-oxobutyl]imidodicarbonate]	–	1200 nM	194 nM
CC(C)C[C@@]1([C@@H](CCNC(=O)c2cccc(F)c2)C(=O)NO)CCN(CCc2ccccc2)C1=O (relative stereo) [Example 77, α-[2-[(3-Fluorobenzoyl)amino]ethyl]-N-hydroxy-3-(2-methylpropyl)-2-oxo-1-(2-phenylethyl)-3-pyrrolidineacetamide]	–	68.5 nM	146 nM
CC(C)C[C@@]1([C@@H](CCN2C(=O)c3ccccc3C2=O)C(=O)NO)CCN(CCc2ccccc2)C1=O [Example 5, (3S)-α-[2-(1,3-Dihydro-1,3-dioxo-2H-isoindol-2-yl)ethyl]-N-hydroxy-3-(2-methylpropyl)-2-oxo-1-(2-phenylethyl)-3-pyrrolidineacetamide]	115 nM	4370 nM	–
CNC(=O)[C@H](CC1CCCCC1)N1CC[C@](CC(=O)NO)(CC(C)C)C1=O [Example 33, [S-(R*,R*)]-α^1-(Cyclohexylmethyl)-N^3-hydroxy-N^1-methyl-3-(2-methylpropyl)-2-oxo-1,3-pyrrolidinediacetamide]	–	31 nM	–
CC(C)C[C@@]1([C@H](CCN2C(=O)c3ccccc3C2=O)C(=O)NO)CCN(CCc2ccccc2)C1=O [Example 71, [S-(R*,R*)]-1,3-Dihydro-N-hydroxy-α-[3-(2-methylpropyl)-2-oxo-1-(2-phenylethyl)-3-pyrrolidinyl]-1,3-dioxo-2H-isoindole-2-butanamide]	–	98 nM	–
